Test results from patent US11345703B2, “Substituted pyrazolo[1,5-a]pyrimidine macrocyclic compound” (SHENZHEN TARGETRX, INC., priority 2018, dated 2022).
pIC50: −log10 of the molar value.

Tests used:
[1] = Metabolic stability, human liver microsome test; type: in vitro ADME; conditions: liver microsomes, pH 7.4, 1 μM compound, 0.5 mg/mL protein, 37° C.; for half-life at 1 μM: read-out: human liver microsome test t1/2(min)
Description: (§1) Microsome tests: human liver microsomes: 0.5 mg/mL, Xenotech; rat liver microsomes: 0.5 mg/mL, Xenotech; coenzyme (NADPH/NADH): 1 mM, Sigma Life Science; magnesium chloride: 5 mM, 100 mM phosphate buffer agent (pH 7.4).
(§2) Preparation of the stock solution: A certain amount of the powder of the example compounds was accurately weighed and dissolved to 5 mM with DMSO.
(§3) Preparation of phosphate buffer (100 mM, pH 7.4): 150 mL of pre-prepared 0.5 M potassium dihydrogen phosphate solution was mixed with 700 mL of pre-prepared 0.5 M dipotassium hydrogen phosphate solution, and the pH of the mixture was adjusted with 0.5 M dipotassium hydrogen phosphate solution to 7.4. It was diluted 5 times with ultrapure water before use, and magnesium chloride was added to obtain a phosphate buffer (100 mM) containing 100 mM potassium phosphate, 3.3 mM magnesium chloride, and a pH of 7.4.
(§4) A solution of NADPH regeneration system (containing 6.5 mM NADP, 16.5 mM G-6-P, 3 U/mL G-6-P D, 3.3 mM magnesium chloride) was prepared and placed on wet ice before use.
(§5) Preparation of stop solution: acetonitrile solution containing 50 ng/mL propranolol hydrochloride and 200 ng/mL tolbutamide (internal standard). 25057.5 μL of phosphate buffer (pH 7.4) was taken into a 50 mL centrifuge tube, 812.5 μL of human liver microsomes was added respectively, and mixed uniformly to obtain a liver microsome dilution with a protein concentration of 0.625 mg/mL. 25057.5 μL of phosphate buffer (pH 7.4) was taken into a 50 mL centrifuge tube, and 812.5 μL of SD rat liver microsomes was added respectively, and mixed uniformly to obtain a liver microsome dilution with a protein concentration of 0.625 mg/mL.
(§6) Incubation of the sample: The stock solutions of the corresponding compounds were diluted to 0.25 mM as working solutions with an aqueous solution containing 70% acetonitrile before use. 398 μL of human liver microsome or rat liver microsome dilutions were added to 96-well incubation plates (N=2), and 2 μL of 0.25 mM working solutions were added and mixed uniformly, respectively.
(§7) Determination of metabolic stability: 300 μL of pre-cooled stop solution was added to each well of a 96-well deep well plate, which was placed on ice as a stop plate. The 96-well incubation plate and the NADPH regeneration system were placed in a 37° C. water bath, shaken at 100 rpm, and pre-incubated for 5 min. 80 μL of the incubation solution was removed from each well of the incubation plate, added to the stop plate, and mixed uniformly, and 20 μL of the NADPH regeneration system solution was supplemented as a sample at 0 min. Then, 80 μL of the NADPH regeneration system solution was added to each well of the incubation plate to start the reaction and the timing was started. […] 100 μL of the reaction solution was removed at 10, 30, and 90 min of the reaction, respectively, and added to the stop plate, and the reaction was terminated by vortexing for 3 min. The stop plate was centrifuged at 5000×g for 10 min at 4° C. 100 μL of the supernatant was removed into a 96-well plate to which 100 μL of distilled water was previously added, mixed uniformly, and sample analysis was performed by LC-MS/MS.
(§8) Data analysis: The peak areas of the corresponding compounds and the internal standard were detected by LC-MS/MS system, and the ratios of the peak areas of the compounds to the internal standard were calculated.
(§9) The metabolic stability in human and rat liver microsomes was evaluated by simultaneously testing and comparing the compounds of the present invention and the compound without deuteration. The non-deuterated compound LOXO-195 was used as a control.

[2] = Metabolic stability, rat liver microsome test; type: in vitro ADME; conditions: SD, liver microsomes, pH 7.4, 1 μM compound, 0.5 mg/mL protein, 37° C.; for half-life at 1 μM: read-out: rat liver microsome test t1/2(min)
Description: as §1, §2, §3, §4, §5, §6, §7, §8, §9

KM12 (TPM3-TRKA) cells = assay: Cytotoxicity test, inhibition of KM12 cell proliferation (CellTiter-Glo); type: cell-based; conditions: Homo sapiens, 72 h, 3 days incubation
Description: The inhibitory effect of the example compounds on the activity of KM12 (TPM3-TRKA) cells was examined.
Experimental methods: 1. Preparation of cell plates—KM12 cells were separately seeded in 96-well plates, and 8 ng/ml IL-3 was added to KM12 cells, and the cell plates were incubated in a carbon dioxide incubator overnight. 2. The test compound was dissolved in DMSO and subjected to a 3.16-fold gradient dilution with 9 compound concentrations in triplicate. 3. Compound Treatment of Cells—The compounds were transferred to cell plates at a starting concentration of 10 μM. The cell plates were incubated in a carbon dioxide incubator for 3 days. 4. Detection—The CellTiter-Glo reagent was added to the cell plate and incubated for 30 minutes at room temperature to stabilize the luminescence signal. Readings were performed using a PerkinElmer Envision multi-label analyzer.

SMILES | microsomal CLint at 1 μM [1] | half-life at 1 μM [1] | microsomal CLint at 1 μM [2] | half-life at 1 μM [2] | pIC50 (KM12 (TPM3-TRKA) cells)
[2H]C([2H])([2H])C1([2H])CCc2ncc(F)cc2C2CCCN2c2ccn3ncc(c3n2)C(=O)N1 (racemic) [Compound 70, 9-fluoro-15-(methyl-d3)-2,11,16,20,21,24-hexaazapentocyclo[16.5.2.0^2,6,0^7,12,0^21,25]pentacosane-1(24),7,9,11,18(25),19,22-heptaene-17-one-15-d] | 78.7 µL/min/mg | 17.6 min | 35.5 µL/min/mg | 39.1 min | –
[2H]C1([2H])c2ncc(F)cc2C2CCCN2c2ccn3ncc(c3n2)C(=O)N[C@H](C)C1([2H])[2H] (stereo partly drawn) [Compound 13, (15R)-9-fluoro-15-methyl-2,11,16,20,21,24-hexaazapentocyclo[16.5.2.0^2,6,0^7,12,0^21,25]pentacosane-1(24),7,9,11,18(25),19,22-heptaene-17-one-13,13,14,14-d4] | 38.5 µL/min/mg | 36 min | 23.3 µL/min/mg | 59.4 min | –
[2H]C1([2H])c2ncc(F)cc2[C@H]2CCCN2c2ccn3ncc(c3n2)C(=O)N[C@H](C)C1([2H])[2H] [Compound L-1-a, (6R,15R)-9-fluoro-15-methyl-2,11,16,20,21,24-hexaazapentocyclo[16.5.2.0^2,6,0^7,12,0^21,25]pentacosane-1(24),7,9,11,18(25),19,22-heptaene-17-one-13,13,14,14-d4] | 56.5 µL/min/mg | 24.5 min | 44.2 µL/min/mg | 31.3 min | –
[2H]C1([2H])c2ncc(F)cc2[C@@H]2CCCN2c2ccn3ncc(c3n2)C(=O)N[C@H](C)C1([2H])[2H] [Compound L-1-b, (6S,15R)-9-fluoro-15-methyl-2,11,16,20,21,24-hexaazapentocyclo[16.5.2.0^2,6,0^7,12,0^21,25]pentacosane-1(24),7,9,11,18(25),19,22-heptaene-17-one-13,13,14,14-d4] | 49.8 µL/min/mg | 27.8 min | 75.1 µL/min/mg | 18.5 min | –
[2H]C1([2H])CCN2c3ccn4ncc(c4n3)C(=O)N[C@H](C)CCc3ncc(F)cc3[C@]21[2H] [Compound L-2-a, (6R,15R)-9-fluoro-15-methyl-2,11,16,20,21,24-hexaazapentocyclo[16.5.2.0^2,6,0^7,12,0^21,25]pentacosane-1(24),7,9,11,18(25),19,22-heptaene-17-one-5,5,6-d3] | 79.6 µL/min/mg | 17.4 min | 45.6 µL/min/mg | 30.4 min | 8.60
[2H]C1([2H])CCN2c3ccn4ncc(c4n3)C(=O)N[C@H](C)CCc3ncc(F)cc3[C@@]21[2H] [Compound L-2-b, (6S,15R)-9-fluoro-15-methyl-2,11,16,20,21,24-hexaazapentocyclo[16.5.2.0^2,6,0^7,12,0^21,25]pentacosane-1(24),7,9,11,18(25),19,22-heptaene-17-one-5,5,6-d3] | 55.2 µL/min/mg | 25.1 min | 57.9 µL/min/mg | 23.9 min | –
C[C@@H]1CCc2ncc(F)cc2C2CCCN2c2ccn3ncc(c3n2)C(=O)N1 (some centres unmarked) [Compound Φ, reference compound] | 94.3 µL/min/mg | 14.7 min | 59.5 µL/min/mg | 23.3 min | –
C[C@@H]1CCc2ncc(F)cc2[C@H]2CCCN2c2ccn3ncc(c3n2)C(=O)N1 [Compound Φ-a, (6R,15R)-9-fluoro-15-methyl-2,11,16,20,21,24-hexaazapentocyclo[16.5.2.0^2,6,0^7,12,0^21,25]pentacosane-1(24),7,9,11,18(25),19,22-heptaene-17-one, reference compound] | 108 µL/min/mg | 12.9 min | 83.2 µL/min/mg | 16.7 min | 8.59
C[C@@H]1CCc2ncc(F)cc2[C@@H]2CCCN2c2ccn3ncc(c3n2)C(=O)N1 [Φ-b, reference compound] | 78.4 µL/min/mg | 17.7 min | 79.2 µL/min/mg | 17.5 min | –
